Measured values: US20080118980A1, “Estrogen Enhancing Differentiation of Human Mesenchymal Stromal Cells and Adipose-derived Stromal Cells” (The Board of Trustees of the University of Illinois,, priority 2006, published 2008)

What was measured:
[1] = tested on: human ASCs; assay: Osteogenic differentiation of human ASCs modulated by E2 (Example 1); assay type: cell-based
Text: Human bone marrow MSCs were provided by the Center for Gene Therapy of Tulane University. The MSCs were isolated from bone marrow cells donated by a healthy adult volunteer. The passage-1 cells were recovered and expanded by culture in a basic medium composed of DMEM, 10% FBS and 1% antibiotic-antimycotic. Human ASCs were isolated from a healthy person with a lipo-aspirated surgery. The abdomen subcutaneous adipose tissue was finely minced and then digested with 0.075 wt % collagenase type I at 37° C. for 45 min. The cells were then collected by filtration with a cell strainer with pore size of 100 μm diameter. The ASCs were expanded in basic DMEM medium. Upon reaching 80-90% confluence of human MSCs and ASCs, the cells were trypsinized, counted, and subcultured at a density of 10^5 cells/100 mm dish. The cells used for study were passage-2. For osteogenic differentiation, the cells were seeded at a cell density of 10^4 cells/cm2 on 12-well plates and 100-mm petri dishes. Upon reaching 70% confluence, counting as day-0, the cells were exposed to osteogenic differentiation medium supplemented with either 10 nM or 10 pM E2. The osteogenic differentiation medium consisted of basic medium supplemented with 100 nM dexamethasone, 10 mM β-glycerophosphate, and 0.05 mM ascorbic acid-2-phosphate. At the defined time, the cells were collected and analyzed for osteogenic gene expression and differentiation potentials.
The cultured cells in 12-well plates were washed twice with PBS, suspended and lysed in 1% Triton-X100 solution. The collected cells were subsequently homogenized using sonication. The DNA content was determined by a fluorometric assay (Bio-Rad). ALP and calcium content were measured by spectrophotometry with a calorimetric kit according to the manufacturers' instructions (Sigma).
RNA was extracted from differentiated cells using TRizol reagent (Invitrogen). 5 μg of total RNA was converted to single stranded cDNA using a commercial cDNA synthesis kit. Aliquots of the cDNA were amplified with Ampli-Taq DNA polymerase for ALP, osteocalcin (OCN), core binding factor alpha1 (cbfa1), peroxisome proliferator activated receptors gamma (PPARγ)-2, estrogen receptors (ER) alpha (α) and beta (β), and housekeeping gene GAPDH. 40 cycles were used, each consisting of 45 sec of denaturation at 95° C., 45 sec of annealing at 58° C., and 1 min of polymerization at 72° C.

[2] = tested on: human ASCs; assay: Adipogenic differentiation of ASCs modulated by E2 (Example 2); assay type: cell-based; conditions: for increase of elution of Oil-O-Red staining: vs differentiation without estrogen, FIG. 7C
Protocol: Because estrogen receptors (ERs) exist in adipose tissues (Dieudonne et al. (2004) Am J Physiol Cell Physiol. 286:C655-661), it is hypothesized that estrogen can also modulate the differentiation potentials of ASCs. All the experiments using human ASCs were performed under an approved IRB protocol of the University of Illinois at Chicago. Human abdomen subcutaneous adipose tissue was obtained from a healthy person with lipo-aspirated surgery. ASCs were isolated from adipose tissue according to previous studies (Hong et al. (2006) Cells Tissues Organs. 183 (3):133-40). Briefly, adipose tissue was finely minced and then digested with 0.075 wt % collagenase type I (Sigma, St Louis, Mo.) at 37° C. for 45 min with intermittent shaking. The cells were collected by filtration with a cell strainer with pore size of 100 μm diameter (Fisher Scientific, Barrington, Ill.). The harvested cells were cultured in a Dulbecco's Modified Eagle's Medium (DMEM), 15% fetal bovine serum (FBS) and 1% antibiotic-antimycotic at 10^6 cells/100 mm dish. Upon reaching 80-90% confluence, the isolated cells were trypsinized, counted, and subcultured at a density of 10^5 cells/100 mm dish as passage-1. The cells used for study are passage-3.
The basic DMEM medium supplemented with 50 nM of dexamethasone, […] and 5 mM of isobutyl-methylxanthine (IBMX) was used to differentiate ASCs into adipocytes (Hong et al. (2005) Ann Biomed Eng. 33:511-517). At 70% confluence of ASCs in 12-well plates, the basic DMEM medium was exchanged for the adipogenic differentiation medium. The effects of estrogen on adipogenic differentiation were observed after E2 supplements at concentrations ranging from 10^−8 to 10^−11M. On day 4, the cells were collected for analysis of adipogenic and ER gene expressions. On day 7, adipogenic differentiation of ASCs modulated by estrogen was analyzed by Oil-O-Red staining and quantitative measurements. Each treatment group included four samples.
On the defined day, cells cultured in 12-well plates were washed twice with phosphate buffered solution (PBS), suspended and lysed in 1% Triton-X100 solution (Sigma, St. Louis, Mo.). The collected cells were subsequently homogenized using sonication (Dismembrator Model 100, Fisher Scientific, Barrington, Ill.). The DNA content in the cells was determined by a fluorometric assay using a spectrofluorometer and DNA quantification kit (Hoechst 33258, Bio-Rad, Hercules, Calif.). The total protein concentrations of lysates were measured by a simple colorimetric assay based on the Bradford dye-binding procedure (Bio-Rad, Hercules, Calif.). The amount of protein was normalized by the unit of DNA.
After 7 days of incubation with adipogenic differentiation medium supplemented with different concentrations of E2, cultured cells were fixed in 10% neutral buffered formalin for 15 min and washed with PBS twice. Cells were immersed in a 60% Oil-O-Red solution in PBS (Sigma, St Louis, Mo.) for 60 min. In order to quantify adipogenic potentials, the images of Oil-O-Red stained at each well were randomly taken by a digital camera connected to a computer monitor. The Oil-O-Red positive cells on the screen were double-blindly counted. Five pictures were taken from each well. The cell numbers were normalized to per mm^2. Oil-O-Red dye then was eluted by 500 μl of 100% isopropanol for each well of cultured cells. The spectrophotometric absorbance of the resulting solution was quantified at 510 nm.
Total RNA was extracted from the various differentiated cells using TRizol reagent (Invitrogen, Carlsbad, Calif.). Approximately 5 μg of total RNA was converted to single stranded cDNA using a commercial cDNA synthesis kit (Invitrogen, Carlsbad, Calif.). […]

C[C@]12CC[C@@H]3c4ccc(O)cc4CC[C@H]3[C@@H]1CC[C@@H]2O [E2, 17-β estradiol]
calcium content ([1]; FIG. 2F): significantly increased | ALP activities ([1]; after 14 days, FIG. 2E): significantly improved | OCN expression (RT-PCR) ([1]; day 7, E2 10 nM): only densely expressed | cbfa-1 expression (RT-PCR band) ([1]; day 7, vs differentiation without estrogen supplement): denser band | cell proliferation (amount of DNA) during osteogenesis ([1]; higher dose of E2, FIG. 2D): inhibits | ALP and von Kossa staining ([1]; osteogenic differentiation medium supplemented with E2 (10 nM or 10 pM)): denser color | ERβ expression (RT-PCR) ([2]; 4 days, FIG. 6): undetected | ERα expression (RT-PCR) ([2]; 4 days, no ERα band without E2 supplement, FIG. 6): expressed | DNA amount ([2]; 7 days adipogenic media with E2 supplements, FIG. 7A): decreased | number of Oil-O-Red positively stained cells ([2]; 7 days, FIG. 7B): increased | population of lipid-containing cells ([2]; ASCs after E2 supplement, Oil-O-Red staining): increased population | increase of elution of Oil-O-Red staining ([2]; estrogen 10^−8 M, 7 days): 33.9% | increase of elution of Oil-O-Red staining ([2]; estrogen 10^−9 M, 7 days): 25.5% | effects on adipogenesis at low concentrations ([2]; estrogen supplement at low concentrations): hardly observed
